Like-named read-outs stand apart in the source and are kept apart here.
Legend:
SNAP-D2SR F50^1.48A = SNAP-D2SR F50^1.48A (Homo sapiens, UniProt P14416, F50A); assay: cell membrane [3H]spiperone assay
Experimental: (§1) Flp-In-CHO cells stably expressing the wild-type or mutant DRs were grown to 90% confluence in 175 cm^2 cell culture flasks. The cells were harvested in PBS containing 2 mM EDTA and centrifuged at 300g for 3 min. The resulting pellet was resuspended in ice-cold assay buffer (20 mM HEPES, 100 mM NaCl, 6 mM MgCl2, 1 mM EGTA, and 1 mM EDTA, pH 7.4), and the centrifugation step was repeated. The intact cell pellet was then resuspended in assay buffer and homogenized using a Polytron homogenizer. After centrifugation (1000g, 10 min), the pellet was discarded, and the supernatant was recentrifuged at 30,000g for 1 h at 4 °C using a Sorvall Evolution RC ultracentrifuge (Thermo Scientific). The resulting pellet was resuspended in assay buffer and stored in 250 μL aliquots at −80 °C. Membrane protein concentration was determined using a Pierce’s BCA protein assay kit (Thermo Fisher, Melbourne).
[^3H]­Spiperone binding experiments using cell membranes were conducted in a 200 μL reaction volume in assay buffer (20 mM HEPES, 100 mM NaCl, 6 mM MgCl2, 1 mM EGTA, and 1 mM EDTA, pH 7.4) containing 100 μM GppNHp and 0.1% ascorbic acid in 96-well plates. […] In all cases, nonspecific binding was determined in the presence of 10 μM haloperidol. To obtain affinity estimates of unlabeled agonists, competition binding experiments were performed at equilibrium. […] After this incubation period, bound and free radioligands were separated by fast-flow filtration through UniFilter-96 GF/B plates using a MicroBeta FilterMate harvester (Revvity) followed by three washes with ice-cold 0.9% NaCl. Filter bound radioactivity was detected as a chemiluminescence after the addition of MicroScint-20 (Revvity) in a MicroBeta plate counter (Revvity).
IC50 values obtained from the inhibition curves were converted to Ki values using the Cheng and Prusoff equation.

SNAP-D2SR F404^8.50A = SNAP-D2SR F404^8.50A (Homo sapiens, UniProt P14416, F433A); assay: cell membrane [3H]spiperone assay
Experimental: as §1
(§2) [^3H]­Spiperone binding experiments using cell membranes were conducted in a 200 μL reaction volume in assay buffer (20 mM HEPES, 100 mM NaCl, 6 mM MgCl2, 1 mM EGTA, and 1 mM EDTA, pH 7.4) containing 100 μM GppNHp and 0.1% ascorbic acid in 96-well plates. […] In all cases, nonspecific binding was determined in the presence of 10 μM haloperidol. […] Filter bound radioactivity was detected as a chemiluminescence after the addition of MicroScint-20 (Revvity) in a MicroBeta plate counter (Revvity). […]

SNAP-D2SR L54^1.52A = SNAP-D2SR L54^1.52A (Homo sapiens, UniProt P14416, L54A); assay: cell membrane [3H]spiperone assay
Experimental: as §1, §2

D2LR = D2LR (Homo sapiens, UniProt P14416); assay: cell membrane [3H]raclopride binding assay; conditions: for Logα_DA / α′_DA: cooperativity with DA
[1] = test system: 6-OHDA contralateral turning model; conditions: with subeffective dose of L-DOPA; earlier report, reference number not given; cited from earlier work
[2] = +0.1 mM GppNHp, cooperativity with [3H]raclopride
[3] = +PTX, cooperativity with [3H]raclopride
[4] = +urea, cooperativity with [3H]raclopride

Chain of D2LR (P14416 whole entry): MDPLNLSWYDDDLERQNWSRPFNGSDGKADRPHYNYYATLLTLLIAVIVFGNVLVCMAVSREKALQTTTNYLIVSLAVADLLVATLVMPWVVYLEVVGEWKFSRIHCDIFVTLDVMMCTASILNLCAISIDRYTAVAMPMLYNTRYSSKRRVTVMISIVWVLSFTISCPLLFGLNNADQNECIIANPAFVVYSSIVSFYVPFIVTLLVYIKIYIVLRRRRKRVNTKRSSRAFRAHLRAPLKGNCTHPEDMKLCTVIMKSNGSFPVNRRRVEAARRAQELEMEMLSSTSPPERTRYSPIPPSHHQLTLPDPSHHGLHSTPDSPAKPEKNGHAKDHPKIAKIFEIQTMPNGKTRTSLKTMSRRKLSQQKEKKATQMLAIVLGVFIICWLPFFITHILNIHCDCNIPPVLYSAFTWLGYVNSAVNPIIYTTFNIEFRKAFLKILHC
Chain of SNAP-D2SR F50^1.48A (P14416 1-414 isoform P14416-2 F50A): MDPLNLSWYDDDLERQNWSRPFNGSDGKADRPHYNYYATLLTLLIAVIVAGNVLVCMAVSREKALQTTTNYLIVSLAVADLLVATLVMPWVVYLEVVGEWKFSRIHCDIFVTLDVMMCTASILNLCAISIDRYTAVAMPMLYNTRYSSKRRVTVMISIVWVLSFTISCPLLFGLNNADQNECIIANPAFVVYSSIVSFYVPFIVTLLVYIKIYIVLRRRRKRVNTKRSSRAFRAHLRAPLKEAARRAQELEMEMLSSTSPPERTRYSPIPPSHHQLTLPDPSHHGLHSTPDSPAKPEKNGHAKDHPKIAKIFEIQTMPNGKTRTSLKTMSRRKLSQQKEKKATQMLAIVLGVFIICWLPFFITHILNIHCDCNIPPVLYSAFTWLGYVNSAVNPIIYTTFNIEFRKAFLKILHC
Chain of SNAP-D2SR L54^1.52A (P14416 1-414 isoform P14416-2 L54A): as the sequence (P14416 1-414 isoform P14416-2 F50A) above, with A50F, L54A counted along it
Chain of SNAP-D2SR F404^8.50A (P14416 1-414 isoform P14416-2 F404A): as the sequence (P14416 1-414 isoform P14416-2 F50A) above, with A50F, F404A counted along it

pKB (SNAP-D2SR F50^1.48A; [3H]spiperone competition binding interaction experiment): 5.57 ± 0.25 | fold decrease in cooperativity with DA vs WT (SNAP-D2SR F50^1.48A; binding): 5 fold | Kb (SNAP-D2SR F50^1.48A; binding interaction experiment): 3 µM | log α (SNAP-D2SR F50^1.48A; cooperativity with DA, binding): 0.33 ± 0.03 | α (SNAP-D2SR F50^1.48A; cooperativity with DA, binding): 2.1 | fold shift + 10 μM PAM (SNAP-D2SR F50^1.48A; shift of DA IC50): 1.7 fold | ΔpIC50 + 10 μM PAM (SNAP-D2SR F50^1.48A; shift of DA pIC50): 0.22 ± 0.12 | fold shift + 10 μM PAM (SNAP-D2SR F404^8.50A; shift of DA IC50): 1.5 fold | ΔpIC50 + 10 μM PAM (SNAP-D2SR F404^8.50A; shift of DA pIC50): 0.19 ± 0.18 | fold shift + 10 μM PAM (SNAP-D2SR L54^1.52A; shift of DA IC50): 1.3 fold | ΔpIC50 + 10 μM PAM (SNAP-D2SR L54^1.52A; shift of DA pIC50): 0.10 ± 0.11 | fold lower affinity in cell membranes than in whole cell binding (D2LR): 4 fold | pKB_D2 PAM (D2LR; +0.1 mM GppNHp): 4.65 ± 0.05 | Logα_DA (D2LR; +0.1 mM GppNHp): 1.30 ± 0.02 | α′_DA (D2LR; +0.1 mM GppNHp): 20 | Logα_[3H]raclo (D2LR; [2]): –0.19 ± 0.05 | α_[3H]raclo (D2LR; [2]): 0.65 | Kb (D2LR; +0.1 mM GppNHp, read-out: KB_D2 PAM (converted)): 22.5 µM | pKB_D2 PAM (D2LR; +PTX): 4.54 ± 0.03 | Logα_DA (D2LR; +PTX): 1.22 ± 0.07 | α′_DA (D2LR; +PTX): 17 | Logα_[3H]raclo (D2LR; [3]): –0.37 ± 0.10 | α_[3H]raclo (D2LR; [3]): 0.42 | Kb (D2LR; +PTX, read-out: KB_D2 PAM (converted)): 29 µM | pKB_D2 PAM (D2LR; +urea): 4.53 ± 0.15 | Logα_DA (D2LR; +urea): 1.35 ± 0.12 | α′_DA (D2LR; +urea): 22 | Logα_[3H]raclo (D2LR; [4]): –0.06 ± 0.08 | α_[3H]raclo (D2LR; [4]): 0.87 | Kb (D2LR; +urea, read-out: KB_D2 PAM (converted)): 30 µM | logα_DA (D2LR; D2LR): 1.30 ± 0.02 | logα_[3H]raclo (D2LR; D2LR): -0.19 ± 0.05 | α_DA (D2LR; D2LR): 20 | α_[3H]raclo (D2LR; D2LR): 0.64 | Kb (D2LR; cell membrane preparations, read-out: KB): 22 µM
SMILES: COc1cc(CO)c(F)cc1C(=O)n1ccc2c(F)cccc21 [D2 PAM2, [5-fluoro-4-(hydroxymethyl)-2-methoxyphenyl]-(4-fluoro-1H-indol-1-yl)methanone]
effect on L-DOPA in a rodent model of Parkinson's disease [1]: potentiate a subeffective dose of L-DOPA

From paper PMC12186844 (ACS Chemical Neuroscience, 2025)
